Assay [1] addresses T1, human recombinant GABAA α5β3γ2 receptor (Homo sapiens (Human), UniProt P18507+P31644). The experiment in a line: Binding assay, [3H]Ro151788 displacement on membranes of HEK cells. To be noted: 0.5 nM [3H]Ro151788, 60 minutes at 4° C., Cheng-Prusoff; read-out: hGABAA α5 Ki. A digest of the protocol: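 HEK-cell membranes with recombinant human α5β3γ2 incubated 60 min at 4 °C with 0.5 nM [3H]Ro151788 in 50 mM Tris pH 7.4, 100 mM KCl; nonspecific binding with 10 μM diazepam. Filtration, scintillation count; % inhibition of specific binding, IC50 from ≥6 concentrations in triplicate, Ki via Cheng-Prusoff.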

Assay [2] deals with T1, human recombinant GABAA α5β3γ2 receptor. Briefly: Functional assay, QPatch automated patch clamp, GABA-evoked currents. Type of assay: cell-based. To be noted: test compound 10 μM, 1 μM GABA, HEK293 cells, percentage modulation of peak current. The procedure:
(§1) Human HEK293 cell lines expressing GABAA α1β3γ2 and GABAAα5β3γ2 receptors were used in functional assays using the QPatch automated patch clamp system.
(§2) HEK293 cell lines stably expressing human recombinant GABAA α1β3γ2 receptor subunits (Millipore, CYL3073) or human recombinant GABAA α5β3γ2 receptor subunits (Millipore, CYL3053) were cultured in DMEM supplemented with 10% FBS (Gibco), passed two times per week and plated on Petri dishes previously coated with poly-d-lysine.
(§3) Automated whole-cell patch clamp recordings were made from cells 2-4 days after plating. Cells were detached using trypsin/EDTA (Sigma) treatment (2 minutes in 0.25% trypsin at 37° C.), then, after centrifugation (125 G, 3 min, 2×), resuspended in a serum-free based media (Gibco, CHO—S-SFM-II) containing 12.5 mM HEPES, 1× penicillin-streptomycin-amphotericin (SigmaMix) and soybean trypsin inhibitor (Sigma, 0.04 mg/ml).
(§4) Cell suspension, as well as the extracellular solution (130 mM NaCl, 5 mM KCl, 5.1 mM HEPES, 4.9 mM HEPES-Na, 10 mM CaCl2), 2 mM MgCl2, 10 mM glucose and 0.1% DMSO, pH=7.35-7.4) and the intracellular solution (80 mM KCl, 50 mM KF, 36 mM KOH, 10 mM EGTA, 10 mM HEPES, 1.75 mM MgCl2, 0.5 mM CaCl2), 4 mM Na2ATP. 14 mM phosphocreatine, 50 U/ml creatine-phosphokinase, 0.3 mM GTP, pH=7.25-7.3) were added to the QPatch-HTX automated patch clamp system (Sophion) in single-cell mode at room temperature. […] At the end of the experiment 100 μM GABA was applied to saturate the GABA-response and to assess the efficacy of the control GABA application.
(§5) The percentage modulation was calculated from the comparison of GABA-evoked peak current amplitudes in the presence and absence of the test compound.
On the technique in general: Patch clamp records ionic current or voltage across a cell membrane.

The target of assay [3] is human recombinant GABAA α1β3γ2 receptor (Homo sapiens (Human), UniProt P14867+P18507). The assay is described as above. Type of assay: cell-based. The conditions noted are these: test compound 10 μM, 1 μM GABA, HEK293 cells, percentage modulation of peak current. Here is the method:
as §1, §2, §3, §4, §5

Molecules are shown by their SMILES.

For orientation: Ki means the dissociation constant of the complex between target and ligand, obtained from inhibition or displacement.

T1 sequence (P31644 32-462): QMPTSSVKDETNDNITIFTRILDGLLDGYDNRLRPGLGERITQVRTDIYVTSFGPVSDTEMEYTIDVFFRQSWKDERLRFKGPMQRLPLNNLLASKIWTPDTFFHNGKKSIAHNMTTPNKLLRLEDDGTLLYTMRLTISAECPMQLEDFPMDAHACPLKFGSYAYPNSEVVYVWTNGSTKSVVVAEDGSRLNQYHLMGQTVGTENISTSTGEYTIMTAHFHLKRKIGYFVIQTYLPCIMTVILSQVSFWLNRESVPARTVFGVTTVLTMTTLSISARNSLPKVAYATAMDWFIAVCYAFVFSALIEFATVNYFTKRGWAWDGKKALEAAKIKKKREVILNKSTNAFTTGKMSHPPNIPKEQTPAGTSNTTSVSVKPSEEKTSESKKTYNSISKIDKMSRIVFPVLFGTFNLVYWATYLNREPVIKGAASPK
T1 sequence (P28472 26-473 partner): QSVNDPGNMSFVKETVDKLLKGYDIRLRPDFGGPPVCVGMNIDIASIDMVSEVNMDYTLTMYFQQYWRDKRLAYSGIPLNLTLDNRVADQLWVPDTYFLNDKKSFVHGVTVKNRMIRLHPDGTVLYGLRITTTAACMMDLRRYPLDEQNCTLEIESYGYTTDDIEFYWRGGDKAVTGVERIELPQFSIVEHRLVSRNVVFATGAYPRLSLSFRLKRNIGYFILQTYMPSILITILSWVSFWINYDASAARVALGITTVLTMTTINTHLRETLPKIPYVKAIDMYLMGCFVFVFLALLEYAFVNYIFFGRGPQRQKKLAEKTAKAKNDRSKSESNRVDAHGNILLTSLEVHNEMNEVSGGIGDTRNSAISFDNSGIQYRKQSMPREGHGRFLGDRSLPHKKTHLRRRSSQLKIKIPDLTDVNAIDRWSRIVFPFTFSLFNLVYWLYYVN
T1 sequence (P18507 40-475): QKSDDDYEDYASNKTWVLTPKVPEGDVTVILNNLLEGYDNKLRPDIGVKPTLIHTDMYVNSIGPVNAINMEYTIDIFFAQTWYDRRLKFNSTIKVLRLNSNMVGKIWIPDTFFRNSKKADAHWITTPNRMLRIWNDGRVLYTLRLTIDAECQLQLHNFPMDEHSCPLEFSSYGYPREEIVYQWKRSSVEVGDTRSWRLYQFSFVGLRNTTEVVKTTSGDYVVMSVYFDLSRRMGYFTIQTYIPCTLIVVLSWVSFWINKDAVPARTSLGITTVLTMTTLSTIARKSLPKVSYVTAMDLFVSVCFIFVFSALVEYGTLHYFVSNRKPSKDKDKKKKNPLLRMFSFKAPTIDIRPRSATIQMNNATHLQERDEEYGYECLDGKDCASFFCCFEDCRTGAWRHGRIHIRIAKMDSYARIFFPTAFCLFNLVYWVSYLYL
human recombinant GABAA α1β3γ2 receptor, sequence (P14867 28-456): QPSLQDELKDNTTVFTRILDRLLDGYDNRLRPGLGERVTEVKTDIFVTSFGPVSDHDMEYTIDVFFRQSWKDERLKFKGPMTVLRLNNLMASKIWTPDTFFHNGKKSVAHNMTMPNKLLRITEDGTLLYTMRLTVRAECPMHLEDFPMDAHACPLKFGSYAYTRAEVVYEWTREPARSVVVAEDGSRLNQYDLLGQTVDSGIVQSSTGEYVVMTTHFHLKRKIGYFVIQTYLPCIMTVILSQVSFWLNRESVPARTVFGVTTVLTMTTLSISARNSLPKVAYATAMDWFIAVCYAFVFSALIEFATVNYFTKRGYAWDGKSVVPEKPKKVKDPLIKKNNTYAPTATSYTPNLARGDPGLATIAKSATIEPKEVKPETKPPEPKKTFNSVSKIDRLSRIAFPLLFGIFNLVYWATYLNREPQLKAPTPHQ
human recombinant GABAA α1β3γ2 receptor, sequence (P28472 26-473 partner): as the sequence (P28472 26-473 partner) above
human recombinant GABAA α1β3γ2 receptor, sequence (P18507 40-475): as the sequence (P18507 40-475) above

For `Cc1nnn(-c2ccc(F)cc2)c1COc1ccc2c(n1)CCN(C(=O)C1CCOCC1)C2` [Example 28, 2-{[1-(4-fluorophenyl)-4-methyl-1H-1,2,3-triazol-5-yl]methoxy}-6-(oxane-4-carbonyl)-5,6,7,8-tetrahydro-1,6-naphthyridine], the inhibition constant (Ki) in assay [1] was 43 nM. Besides, the “hGABAA α5 efficacy” value in assay [2] is −40%. Moreover, in assay [3], the “hGABAA α1 efficacy” value is −6%.

With `Cc1onc(-c2ccc(F)cc2)c1COc1ccc2c(n1)CCN(C(=O)C1CCOCC1)C2` [Example 9, 2-{[3-(4-fluorophenyl)-5-methyl-1,2-oxazol-4-yl]methoxy}-6-(oxane-4-carbonyl)-5,6,7,8-tetrahydro-1,6-naphthyridine], the Ki in assay [1] amounted to 6.2 nM. The “hGABAA α5 efficacy” value in assay [2] is recorded as −37%. In addition, the “hGABAA α1 efficacy” value in assay [3] was −9%.

In the case of `Cc1onc(-c2ccc(F)cc2)c1COc1ccc2c(n1)CCN(C(=O)CS(C)(=O)=O)C2` [Example 8, 1-(2-{[3-(4-fluorophenyl)-5-methyl-1,2-oxazol-4-yl]methoxy}-5,6,7,8-tetrahydro-1,6-naphthyridin-6-yl)-2-methanesulfonylethan-1-one], in assay [1], the Ki amounted to 3.7 nM. In addition, in assay [2], the “hGABAA α5 efficacy” value was −39%. Besides, in assay [3], the “hGABAA α1 efficacy” value is −2%.

In the case of `Cc1nnn(-c2ccc(F)cc2)c1COc1ccc2c(n1)CCN(C(=O)[C@@H]1CCOC1)C2` [Example 17, 2-{[1-(4-fluorophenyl)-4-methyl-1H-1,2,3-triazol-5-yl]methoxy}-6-[(3R)-oxolane-3-carbonyl]-5,6,7,8-tetrahydro-1,6-naphthyridine], the Ki in assay [1] was found to be 69 nM. For the same compound, the “hGABAA α5 efficacy” value in assay [2] is −37%. Moreover, the “hGABAA α1 efficacy” value in assay [3] was −6%.

As for `Cc1nnn(-c2ccc(F)cc2)c1COc1ccc2c(n1)CCN(C(=O)[C@H]1CCOC1)C2` [Example 18, 2-{[1-(4-fluorophenyl)-4-methyl-1H-1,2,3-triazol-5-yl]methoxy}-6-[(3S)-oxolane-3-carbonyl]-5,6,7,8-tetrahydro-1,6-naphthyridine], in assay [1], the Ki worked out at 50 nM. Besides, the “hGABAA α5 efficacy” value in assay [2] is recorded as −45%. In assay [3], the “hGABAA α1 efficacy” value was −5%.

For `Cc1nnn(-c2ccc(F)cc2)c1COc1ccc2c(n1)CN(C(=O)C1CC1)C2` [Example 47, cyclopropyl(2-{[1-(4-fluorophenyl)-4-methyl-1H-1,2,3-triazol-5-yl]methoxy}-5,7-dihydro-6H-pyrrolo[3,4-b]pyridin-6-yl)methanone], the Ki in assay [1] is 7.2 nM. Also, the “hGABAA α5 efficacy” value in assay [2] is recorded as −34%. Further, the “hGABAA α1 efficacy” value in assay [3] is on record as −10%.

On to `Cc1nnn(-c2ccc(F)cc2)c1COc1ccc2c(n1)CN(C(=O)CC(C)C)C2` [Example 56, 1-(2-{[1-(4-fluorophenyl)-4-methyl-1H-1,2,3-triazol-5-yl]methoxy}-5H,6H,7H-pyrrolo[3,4-b]pyridin-6-yl)-3-methylbutan-1-one], for which the Ki in assay [1] was 17 nM. The “hGABAA α5 efficacy” value in assay [2] was −40%. The “hGABAA α1 efficacy” value in assay [3] is −14%.

For `CC(=O)N1CCc2nc(OCc3c(C)nnn3-c3ccc(F)cc3)ccc2C1` [Example 14, 1-(2-{[1-(4-fluorophenyl)-4-methyl-1H-1,2,3-triazol-5-yl]methoxy}-5,6,7,8-tetrahydro-1,6-naphthyridin-6-yl)ethan-1-one], the inhibition constant Ki in assay [1] is 28 nM. Besides, the “hGABAA α5 efficacy” value in assay [2] is listed as −36%. For the same compound, the “hGABAA α1 efficacy” value in assay [3] worked out at 0%.

As for `Cc1nnn(-c2ccc(F)cc2)c1COc1ccc2c(n1)CCN(C(=O)C1CCOC1)C2` (stereo not drawn) [Example 16, 2-{[1-(4-fluorophenyl)-4-methyl-1H-1,2,3-triazol-5-yl]methoxy}-6-(oxolane-3-carbonyl)-5,6,7,8-tetrahydro-1,6-naphthyridine], in assay [1], the Ki is 42 nM. Also, the “hGABAA α5 efficacy” value in assay [2] was −39%. The “hGABAA α1 efficacy” value in assay [3] is −7%.

On to `Cc1onc(-c2ccc(F)cc2)c1COc1ccc2c(n1)CCN(C(=O)C1CCS(=O)(=O)CC1)C2` [Example 6, 4-(2-{[3-(4-fluorophenyl)-5-methyl-1,2-oxazol-4-yl]methoxy}-5,6,7,8-tetrahydro-1,6-naphthyridine-6-carbonyl)-1lambda6-thiane-1,1-dione], for which, in assay [1], the Ki stood at 2.7 nM. In assay [2], the “hGABAA α5 efficacy” value is given as −38%. Moreover, in assay [3], the “hGABAA α1 efficacy” value is given as −10%.

Regarding `Cc1nnn(-c2ccc(F)cc2)c1COc1ccc2c(n1)CN(C(=O)C1CCCO1)C2` (stereo not drawn) [Example 61, 1-(4-fluorophenyl)-4-methyl-5-({[6-(oxolane-2-carbonyl)-5H,6H,7H-pyrrolo[3,4-b]pyridin-2-yl]oxy}methyl)-1H-1,2,3-triazole], in assay [1], the inhibition constant Ki is 4.8 nM. The “hGABAA α5 efficacy” value in assay [2] was −41%. Moreover, the “hGABAA α1 efficacy” value in assay [3] is −20%.

On to `Cc1nnn(-c2ccc(F)cc2)c1COc1ccc2c(n1)CCN(C(=O)C1CCCO1)C2` (stereo not drawn) [Example 15, 2-{[1-(4-fluorophenyl)-4-methyl-1H-1,2,3-triazol-5-yl]methoxy}-6-(oxolane-2-carbonyl)-5,6,7,8-tetrahydro-1,6-naphthyridine], for which the Ki in assay [1] is 42 nM. The “hGABAA α5 efficacy” value in assay [2] is on record as −43%. Also, the “hGABAA α1 efficacy” value in assay [3] is listed as −8%.

Take `Cc1nnn(-c2ccc(F)cc2)c1COc1ccc2c(n1)CCN(C(=O)C1CCS(=O)(=O)CC1)C2` [Example 23, 4-(2-{[1-(4-fluorophenyl)-4-methyl-1H-1,2,3-triazol-5-yl]methoxy}-5,6,7,8-tetrahydro-1,6-naphthyridine-6-carbonyl)-1lambda6-thiane-1,1-dione]: the inhibition constant Ki in assay [1] stood at 45 nM. For the same compound, the “hGABAA α5 efficacy” value in assay [2] is listed as −47%. The “hGABAA α1 efficacy” value in assay [3] is −4%.

Consider `Cc1nnn(-c2ccc(Cl)cc2)c1COc1ccc2c(n1)CCN(C(=O)C1CCOC1)C2` (stereo not drawn) [Example 29, 2-{[1-(4-chlorophenyl)-4-methyl-1H-1,2,3-triazol-5-yl]methoxy}-6-(oxolane-3-carbonyl)-5,6,7,8-tetrahydro-1,6-naphthyridine], for which the “hGABAA α5 efficacy” value in assay [2] is listed as −25%. The “hGABAA α1 efficacy” value in assay [3] was −2%.

As for `Cc1onc(-c2ccc(F)cc2)c1COc1ccc2c(n1)CCN(C(=O)C1CCOC1)C2` (stereo not drawn) [Example 2, 2-{[3-(4-fluorophenyl)-5-methyl-1,2-oxazol-4-yl]methoxy}-6-(oxolane-3-carbonyl)-5,6,7,8-tetrahydro-1,6-naphthyridine], the Ki in assay [1] was 7 nM. Besides, the “hGABAA α5 efficacy” value in assay [2] is on record as −40%. Further, the “hGABAA α1 efficacy” value in assay [3] was −14%.

`Cc1nnn(-c2ccc(F)cc2)c1COc1ccc2c(n1)CCN(C(=O)NC1CC(=O)N(C)C1)C2` (stereo not drawn) [Example 75, 2-{[1-(4-fluorophenyl)-4-methyl-1H-1,2,3-triazol-5-yl]methoxy}-N-(1-methyl-5-oxopyrrolidin-3-yl)-5,6,7,8-tetrahydro-1,6-naphthyridine-6-carboxamide]: the inhibitory constant (Ki) in assay [1] came to 38 nM. Also, in assay [2], the “hGABAA α5 efficacy” value was −35%. In addition, the “hGABAA α1 efficacy” value in assay [3] is −3%.

As to `Cc1onc(-c2ccc(F)cc2)c1COc1ccc2c(n1)CCN(C(=O)c1ccn(C)c1)C2` [Example 11, 2-{[3-(4-fluorophenyl)-5-methyl-1,2-oxazol-4-yl]methoxy}-6-(1-methyl-1H-pyrrole-3-carbonyl)-5,6,7,8-tetrahydro-1,6-naphthyridine], the Ki in assay [1] is 11 nM.

For the origin of these results see patent US12370182B2, “Bicyclic derivatives as GABAA A5 receptor modulators” (RICHTER GEDEON NYRT., priority 2018, dated 2025).
